These results are taken from US9029389B2 (Institut Pasteur Korea, priority 2011, dated 2015).

Each structure is given as a SMILES string. Where only a bound is given, the exact number is not on record here.

The target in the first test is T1, Human 5-lipoxygenase (Homo sapiens, UniProt P09917).
T1 construct: purchased Cayman 60402; host or cells: insect cells
T1 sequence (P09917 1-674): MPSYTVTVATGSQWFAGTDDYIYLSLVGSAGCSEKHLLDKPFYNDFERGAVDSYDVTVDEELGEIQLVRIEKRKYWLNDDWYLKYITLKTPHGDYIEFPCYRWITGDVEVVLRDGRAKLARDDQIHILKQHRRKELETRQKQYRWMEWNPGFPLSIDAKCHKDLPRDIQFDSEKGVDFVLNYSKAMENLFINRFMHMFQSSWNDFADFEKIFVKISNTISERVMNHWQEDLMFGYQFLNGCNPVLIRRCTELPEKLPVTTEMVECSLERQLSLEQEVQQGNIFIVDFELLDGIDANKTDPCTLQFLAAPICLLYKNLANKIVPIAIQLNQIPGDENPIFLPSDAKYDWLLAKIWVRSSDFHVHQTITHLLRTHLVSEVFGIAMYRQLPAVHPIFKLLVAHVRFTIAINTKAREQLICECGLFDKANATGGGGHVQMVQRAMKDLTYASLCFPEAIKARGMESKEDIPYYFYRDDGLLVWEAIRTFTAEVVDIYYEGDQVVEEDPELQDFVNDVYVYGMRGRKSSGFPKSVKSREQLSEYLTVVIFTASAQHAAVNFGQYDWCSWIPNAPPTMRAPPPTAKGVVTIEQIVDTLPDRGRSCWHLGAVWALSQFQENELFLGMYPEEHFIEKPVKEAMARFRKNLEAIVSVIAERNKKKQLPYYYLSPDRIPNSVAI
Nature of the test: Activity of compounds against 5-LO enzyme (LTB4 measurement and/or fluorescence method). The note with it: 5-LO, single concentration of 10 uM in duplicate. The class given is biochemical. In short, it runs like this: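 Insect-cell human 5-LO preincubated 15 min at RT with compound (pH 7.4, 2 mM CaCl2, 0.1 mM ATP, 1% DMSO), then 3 uM arachidonic acid for 5 min at 37 °C; LTB4 quantified by EIA and/or LC/MS/MS. Alternatively, fluorescence of 5-HpETE via H2DCFDA, 100 uM ATP, 3 uM arachidonic acid, 5 min, RT; single 10 uM screen then 6- or 11-point IC50.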
As usually defined, the inhibition is the drop in the measured response relative to a control, in per cent. High values mean a response far below the control, low ones a response near the control. In the case of `CCc1nc2ccccn2c1C(=O)NCc1ccc(CC2CCOCC2)cc1` [compound 357, 2-ethyl-N-(4-((tetrahydro-2H-pyran-4-yl)methyl)benzyl)imidazo[1,2-a]pyridine-3-carboxamide], the inhibition at 10 µM is below 40%.
Take `Cc1nc2ccccn2c1C(=O)NCc1ccc2[nH]ccc2c1` [compound 21, N-((1H-Indol-5-yl)methyl)-2-methylimidazo[1,2-a]pyridine-3-carboxamide]: the inhibition at 10 µM is below 40%.
Same read-out and setting: with `CCc1nc2ccc(Cl)cn2c1C(=O)N(C)Cc1ccc(Oc2ccc(F)cc2)cc1` [compound 164, 6-Chloro-2-ethyl-N-(4-(4-fluorophenoxy)benzyl)-N-methylimidazo[1,2-a]pyridine-3-carboxamide] the figure was above 69%; with `CCc1nc2ccc(Cl)cn2c1C(=O)NCc1ccc(N2CCC(O)(c3ccccc3)CC2)cc1` [compound 328, 6-chloro-2-ethyl-N-(4-(4-hydroxy-4-phenylpiperidin-1-yl)benzyl)imidazo[1,2-a]pyridine-3-carboxamide], below 40%.
As for `CCc1nc2ccc(Cl)cn2c1C(=O)N1CCC(OCc2ccc(C(F)(F)F)cc2)CC1` [compound 334, (6-chloro-2-ethylimidazo[1,2-a]pyridin-3-yl)(4-((4-(trifluoromethyl)benzyl)oxy)piperidin-1-yl)methanone], the inhibition at 10 µM is below 40%.
The same measure, in the same setting: with `CCc1nc2cc(Cl)ccn2c1C(=O)NCc1ccc(OCc2ccc(OC(F)(F)F)cc2)cc1` [compound 171] the figure was below 40%; with `CCc1nc2ccc(Cl)cn2c1C(=O)NCc1ccc(-c2ccccc2C(F)(F)F)cc1` [compound 98, 6-Chloro-2-ethyl-N-((2′-(trifluoromethyl)biphenyl-4-yl)methyl)imidazo[1,2-a]pyridine-3-carboxamide], 40 to 69%; with `CCc1nc2ccc(Cl)cn2c1C(=O)NCc1ccc(Cl)cc1` [compound 78, 6-Chloro-N-(4-chlorobenzyl)-2-ethylimidazo[1,2-a]pyridine-3-carboxamide], below 40%.
Same read-out and setting: with `CCc1nc2cc(Cl)ccn2c1C(=O)NCc1ccc2[nH]c(-c3ccc(OC(F)(F)F)cc3)nc2c1` [compound 186, 7-Chloro-2-ethyl-N-((2-(4-(trifluoromethoxy)phenyl)-1H-benzo[d]imidazol-5-yl)methyl)imidazo[1,2-a]pyridine-3-carboxamide] the figure was 40 to 69%.
The same measure, in the same setting: the value for `Cc1nc2cc(-c3ccccc3)ccn2c1C(=O)NCc1ccccc1` [compound 22, N-Benzyl-2-methyl-7-phenylimidazo[1,2-a]pyridine-3-carboxamide] was 40 to 69%; that for `CCc1nc2cc(Cl)ccn2c1C(=O)NCc1ccn(-c2ccc(F)cc2)n1` [compound 154, 7-Chloro-2-ethyl-N-((1-(4-fluorophenyl)-1H-pyrazol-3-yl)methyl)imidazo[1,2-a]pyridine-3-carboxamide] was below 40%; that for `CCc1nc2cc(Cl)c(Cl)cn2c1C(=O)NCc1ccc(N2CCN(Cc3ccc(F)cc3)CC2)cc1` [compound 179, 6,7-Dichloro-2-ethyl-N-(4-(4-(4-fluorobenzyl)piperazin-1-yl)benzyl)imidazo1,2-al pyridine-3-carboxamide] was 40 to 69%.
`Cc1nc2ccccn2c1C(=O)NCc1ccc(F)cc1` [compound 4, N-(4-Fluorobenzyl)-2-methylimidazo[1,2-a]pyridine-3-carboxamide] had an inhibition at 10 µM below 40%.
On the same count and under the same terms, with `Cc1nc2ccccn2c1C(=O)NCc1ccc(C(=O)O)cc1` [compound 26, 4-((2-Methylimidazo[1,2-a]pyridine-3-carboxamido)methyl)benzoic acid] the figure was below 40%; with `CCc1nc2c(Br)cccn2c1C(=O)NCc1ccc(N2CCN(c3ccc(F)cc3)CC2)cc1` [compound 260, 8-Bromo-2-ethyl-N-(4-(4-(4-fluorophenyl)piperazin-1-yl)benzyl)imidazo[1,2-a]pyridine-3-carboxamide], above 69%; with `CCc1nc2cc(OC)ccn2c1C(=O)NCc1ccc(OC(F)(F)F)cc1` [compound 118, 2-Ethyl-7-methoxy-N-(4-(trifluoromethoxy)benzyl)imidazo[1,2-a]pyridine-3-carboxamide], below 40%.
For `Cc1nc2c(O)cccn2c1C(=O)NCc1ccccc1` [compound 48, N-Benzyl-8-hydroxy-2-methylimidazo[1,2-a]pyridine-3-carboxamide], the inhibition at 10 µM was below 40%.
Same read-out and setting: the value for `CCc1nc2ccc(Cl)cn2c1C(=O)NCc1ccn(-c2ccc(F)cc2)n1` [compound 153, 6-Chloro-2-ethyl-N-((1-(4-fluorophenyl)-1H-pyrazol-3-yl)methyl)imidazo[1,2-a]pyridine-3-carboxamide] was below 40%.
The same measure, in the same setting: with `CCc1nc2ccc(Cl)cn2c1C(=O)NCc1ccc2oc(-c3ccc(F)cc3)nc2c1` [compound 258, 6-Chloro-2-ethyl-N-((2-(4-fluorophenyl)benzo[d]oxazol-5-yl)methyl)imidazo[1,2-a]pyridine-3-carboxamide] the figure was below 40%; with `CCc1nc2ccc(Cl)cn2c1C(=O)NCc1ccc(Oc2ccccc2)cc1` [compound 62], below 40%; with `CCc1nc2cc(Cl)ccn2c1C(=O)NCc1ccc(-c2ccc(C(C)(C)C)cc2)cc1` [compound 114, N-((4′-tert-Butylbiphenyl-4-yl)methyl)-7-chloro-2-ethylimidazo[1,2-a]pyridine-3-carboxamide], 40 to 69%.
On the same count and under the same terms, with `CCc1nc2ccc(Cl)cn2c1C(=O)NCc1ccc(N2CCC(COC(C)C)CC2)cc1` [compound 276, 6-Chloro-2-ethyl-N-(4-(4-(isopropoxymethyl)piperidin-1-yl)benzyl)imidazo[1,2-a]pyridine-3-carboxamide] the figure was below 40%.
Compound `CCc1nc2ccccn2c1C(=O)NCc1ccc(OC(F)(F)F)cc1` [compound 51, 2-Ethyl-N-(4-(trifluoromethoxy)benzyl)imidazo[1,2-a]pyridine-3-carboxamide] gave an inhibition at 10 µM below 40%.
On the same count and under the same terms, the value for `CCc1nc2ccc(Cl)cn2c1C(=O)NCc1ccc(N2CCC(OCc3ccc(F)cc3)CC2)cc1` [compound 300, 6-Chloro-2-ethyl-N-(4-(4-(4-fluorobenzyloxy)piperidin-1-yl)benzyl)imidazo[1,2-a]pyridine-3-carboxamide] was below 40%; that for `CCc1nc2cc(Cl)ccn2c1C(=O)NCc1ccc2[nH]c(CN3CCOCC3)nc2c1` [compound 196, 7-Chloro-2-ethyl-N-((2-(morpholinomethyl)-1H-benzo[d]imidazol-5-yl)methyl)imidazo[1,2-a]pyridine-3-carboxamide] was below 40%; that for `Cc1nc2c(F)cccn2c1C(=O)NCc1ccccc1` [compound 35, N-Benzyl-8-fluoro-2-methylimidazo[1,2-a]pyridine-3-carboxamide] was below 40%.
Regarding `Cc1nc2ccccn2c1C(=O)Nc1ccc(OCc2ccccc2)cc1` [compound 14, N-(4-(Benzyloxy)phenyl)-2-methylimidazo[1,2-a]pyridine-3-carboxamide], the inhibition at 10 µM was below 40%.
Consider `CCc1nc2cc(Cl)ccn2c1C(=O)NCc1ccc(Oc2ccc(F)cc2)cc1` [compound 129, 7-Chloro-2-ethyl-N-(4-(4-fluorophenoxy)benzyl)imidazo[1,2-a]pyridine-3-carboxamide], for which the inhibition at 10 µM is 40 to 69%.

Still in this test, the particulars now being: 6 or 11 point dose response in duplicate.
In general, IC50 refers to the concentration that inhibits the measured activity by half. A higher IC50 goes with weaker potency in that assay. On to `CCc1nc2ccc(Cl)cn2c1C(=O)N(C)Cc1ccc(Oc2ccc(F)cc2)cc1` [compound 164, 6-Chloro-2-ethyl-N-(4-(4-fluorophenoxy)benzyl)-N-methylimidazo[1,2-a]pyridine-3-carboxamide], for which the IC50 was 1 to 20 µM.
The same measure, in the same setting: with `CCc1nc2c(Br)cccn2c1C(=O)NCc1ccc(N2CCN(c3ccc(F)cc3)CC2)cc1` [compound 260, 8-Bromo-2-ethyl-N-(4-(4-(4-fluorophenyl)piperazin-1-yl)benzyl)imidazo[1,2-a]pyridine-3-carboxamide] the figure was above 20 µM.
